Data published in patent publication US11130741B2 (Bioimics AB, priority 2016, dated 2021).
In brackets after ≈: the same amount, converted by molar mass. Where two headings read alike, the source gives them in different places.

How the values were obtained:
[1] = test system: E. coli RNase P RNA, M1 RNA; assay: Inhibition of bacterial RNase P activity, IC50 determination (cleavage of pATSerUG by M1 RNA); assay type: biochemical; settings: NI = No inhibition
[2] = test system: Pseudomonas aeruginosa (ATCC27853); assay: microbe, parasite or virus in culture; assay type: cell-based; settings: read-out: MIC P. aeruginosa ATCC 27853
[3] = test system: Staphylococcus aureus subsp. aureus (ATCC29213); assay: MIC, broth microdilution (CLSI), Staphylococcus aureus subsp. aureus ATCC29213; assay type: cell-based
H. influenzae ATCC 49247 = assay: MIC, H. influenzae ATCC 49247; assay type: cell-based; settings: Haemophilus influenzae, ATCC49247
A. baumannii ATCC 17978 = assay: MIC, A. baumannii ATCC 17978; assay type: cell-based; settings: Acinetobacter baumannii, ATCC17978
[4] = test system: P. aeruginosa NTUH-974 (MDR); assay: MIC, P. aeruginosa NTUH-974 (MDR); assay type: cell-based
N. gonorrhoeae 612501 = assay: MIC, N. gonorrhoeae 612501; assay type: cell-based; settings: Neisseria gonorrhoeae
S. aureus ATCC 29213 = assay: MIC, S. aureus ATCC 29213 + 50% HS; assay type: cell-based; settings: Staphylococcus aureus, ATCC29213
[5] = test system: S. aureus MRSA ATCC 33591; assay: MIC, S. aureus MRSA ATCC 33591; assay type: cell-based
S. pneumoniae ATCC 49619 = assay: MIC, S. pneumoniae ATCC 49619; assay type: cell-based; settings: Streptococcus pneumoniae, ATCC49619
[6] = test system: Staphylococcus aureus (ATCC25923); assay: MIC, broth microdilution (CLSI), Staphylococcus aureus ATCC25923
Method: Initial minimal inhibitory concentration (MIC) tests were made on two bacterial strains: • Escherichia coli (ATCC25922) • Staphylococcus aureus (ATCC25923).
Minimal Inhibitory Concentration (MIC)
MIC values were determined using the standard broth microdilution procedure based on the guidelines by the Clinical and Laboratory Standards Institute (CLSI). Briefly, the compounds were dissolved in DMSO to 10 mM. They were diluted in cation-adjusted Mueller-Hinton broth (CAMHB) to four times the highest concentration tested. A serial 2-fold dilution in CAMHB was done in microdilution plates. The inoculum of bacterial strain to be tested was prepared by making a suspension of colonies from an 18 to 24 hours old plate in CAMHB. The inoculum was diluted so that, after inoculation, each well contained approximately 5×10^5 CFU/mL. To a volume of 50 μl compound in CAMHB an equal volume of inoculum was added. The tray was sealed in a plastic bag and incubated at 35° C. for 16 to 20 hours. To aid in the detection of growth the dye resazurin was added to a final concentration 0.001% and incubated at room temperature for 1 h. Reduction of resazurin, and therefore bacterial growth, was seen as a change from blue to pink.

[7] = test system: Escherichia coli (ATCC25922); assay: MIC, broth microdilution (CLSI), Escherichia coli ATCC25922
[8] = test system: Enterococcus faecalis (ATCC29212); assay: MIC, broth microdilution (CLSI), Enterococcus faecalis ATCC29212; assay type: cell-based; settings: read-out: MIC E. faecalis ATCC 29212
E. faecium ATCC 700221 = assay: MIC, E. faecium ATCC 700221; assay type: cell-based
E. coli JW5503 = assay: MIC, E. coli JW5503; assay type: cell-based; settings: Escherichia coli, JW5503, read-out: MIC E. coli JW5503
K. pneumoniae ATCC 43816 = assay: MIC, K. pneumoniae ATCC 43816; assay type: cell-based; settings: Klebsiella pneumoniae, ATCC43816
[9] = ATCC29213, Table 15, read-out: S. aureus ("wound") (MIC)
[10] = ATCC29213, Table 16, read-out: MIC S. aureus ATCC 29213
[11] = Pseudomonas aeruginosa; read-out: MIC P. aeruginosa NTUH-974 (MDR)
[12] = Staphylococcus aureus; read-out: MIC S. aureus MRSA ATCC 33591
[13] = ATCC25923, read-out: S. aureus ("Clinical") MIC
[14] = ATCC25922, read-out: E. coli MIC, Table 15, NI = No inhibition

| SMILES | IC50 [1] | MIC [3, 9] | MIC [6, 13] | MIC [7, 14] | further results |
| --- | --- | --- | --- | --- | --- |
| NC1CCCC(C(=O)Nc2cc(C(F)(F)F)cc3c2Nc2ccc(-c4cc5ccccc5[nH]4)cc2S3)C1 (stereo not shown) [compound 242, N-(7-(1H-Indol-2-yl)-3-(trifluoromethyl)-10H-phenothiazin-1-yl)-3-aminocyclohexanecarboxamide] | 3 µM | 8 µg/mL (≈ 15.3 µM) | 4 µg/mL (≈ 7.65 µM) | – | MIC [2]: > 128 µg/mL; MIC [3, 10]: 2 µg/mL (≈ 3.83 µM); MIC (H. influenzae ATCC 49247): 16 µg/mL (≈ 30.6 µM); MIC (A. baumannii ATCC 17978): 16 µg/mL (≈ 30.6 µM); MIC [4, 11]: 64 µg/mL (≈ 122 µM); MIC (N. gonorrhoeae 612501): 2 µg/mL (≈ 3.83 µM); MIC (S. aureus ATCC 29213): 128 µg/mL; MIC [5, 12]: 2 µg/mL (≈ 3.83 µM); MIC (S. pneumoniae ATCC 49619): 16 µg/mL (≈ 30.6 µM) |
| COC(=O)c1ccc2c(c1)Sc1cc(C(F)(F)F)cc(NC3CCN(CCN)CC3)c1N2 [compound 247, Methyl 9-((1-(2-aminoethyl)piperidin-4-yl)amino)-7-(trifluoromethyl)-10H-phenothiazine-3-carboxylate] | 16 µM | 8 µg/mL (≈ 17.1 µM) | 4 µg/mL (≈ 8.57 µM) | 4 µg/mL (≈ 8.57 µM) | – |
| NCCCN1c2ccc(-c3cc4ccccc4[nH]3)cc2Sc2cc(C(F)(F)F)ccc21 [compound 245, 3-(3-(1H-indol-2-yl)-7-(trifluoromethyl)-10H-phenothiazin-10-yl)propan-1-amine] | 1 µM | 1 µg/mL (≈ 2.28 µM) | 2 µg/mL (≈ 4.55 µM) | 7 µg/mL (≈ 15.9 µM) | MIC [8]: 2 µg/mL (≈ 4.55 µM); MIC [2]: > 128 µg/mL; MIC [3, 10]: 2 µg/mL (≈ 4.55 µM); MIC (H. influenzae ATCC 49247): 4 µg/mL (≈ 9.1 µM); MIC (A. baumannii ATCC 17978): 16 µg/mL (≈ 36.4 µM); MIC [4, 11]: 64 µg/mL (≈ 146 µM); MIC (N. gonorrhoeae 612501): 2 µg/mL (≈ 4.55 µM); MIC (E. faecium ATCC 700221; Enterococcus faecium, ATCC700221; read-out: MIC E. faecium ATCC 700221): 1 µg/mL (≈ 2.28 µM); MIC (E. coli JW5503): 8 µg/mL (≈ 18.2 µM); MIC (K. pneumoniae ATCC 43816): 32 µg/mL (≈ 72.8 µM); MIC (S. aureus ATCC 29213): 128 µg/mL; MIC [5, 12]: 2 µg/mL (≈ 4.55 µM); MIC (S. pneumoniae ATCC 49619): 16 µg/mL (≈ 36.4 µM); MIC ([7]; ATCC25922, read-out: MIC E. coli ATCC 25922, Table 16): 8 µg/mL (≈ 18.2 µM) |
| N#Cc1ccc2c(c1)Sc1cc(C(F)(F)F)cc(NC3CCN(CCN)CC3)c1N2 [compound 217, 9-((1-(2-Aminoethyl)piperidin-4-yl)amino)-7-(trifluoromethyl)-10H-phenothiazine-3-carbonitrile] | 10 µM | 4 µg/mL (≈ 9.23 µM) | 2 µg/mL (≈ 4.61 µM) | 3 µg/mL (≈ 6.92 µM) | – |
| NC1CCCC(C(=O)Nc2cc(C(F)(F)F)cc3nc4ccccc4nc23)C1 (stereo not shown) [compound 211, 3-amino-N-(3-(trifluoromethyl)phenazin-1-yl) cyclohexane-carboxamide] | 258 µM | 211 µg/mL (≈ 543 µM) | 25 µg/mL (≈ 64.4 µM) | – | – |
| CN(C)CCCN1c2ccc(-c3cc4ccccc4[nH]3)cc2Sc2cccnc21 [compound 135, 3-(7-(1H-Indol-2-yl)-10H-benzo[b]pyrido[2,3-e][1,4]thiazin-10-yl)-N,N-dimethylpropan-1-amine] | 24 to 32 µM | 8 µg/mL (≈ 20 µM) | 6 µg/mL (≈ 15 µM) | > 100 µg/mL | – |
| FC(F)(F)c1cc(NC2CCNCC2)c2c(c1)Sc1ccccc1N2 [compound 141, N-(piperidin-4-yl)-3-(trifluoromethyl)-10H-phenothiazin-1-amine] | 12 µM | 6 µg/mL (≈ 16.4 µM) | 3 µg/mL (≈ 8.21 µM) | 12 µg/mL (≈ 32.8 µM) | – |
| NCCNC(=O)c1ccc2c(c1)Sc1cc(C(F)(F)F)cc(NC3CCN(CCN)CC3)c1N2 [compound 255, N-(2-aminoethyl)-9-((1-(2-aminoethyl)piperidin-4-yl)amino)-7-(trifluoromethyl)-10H-phenothiazine-3-carboxamide trifluroroacetic acid] | – | 8 µg/mL (≈ 16.2 µM) | – | – | MIC [8]: 16 µg/mL (≈ 32.4 µM); MIC [2]: 128 µg/mL (≈ 259 µM); MIC [3, 10]: 8 µg/mL (≈ 16.2 µM); MIC (H. influenzae ATCC 49247): 64 µg/mL (≈ 129 µM); MIC (A. baumannii ATCC 17978): 128 µg/mL (≈ 259 µM); MIC ([4]; Pseudomonas aeruginosa, read-out: MIC P. aeruginosa NTUH-974 (MDR)): 64 µg/mL (≈ 129 µM); MIC (N. gonorrhoeae 612501): 16 µg/mL (≈ 32.4 µM); MIC (E. faecium ATCC 700221; Enterococcus faecium, ATCC700221, read-out: MIC E. faecium ATCC 700221): 32 µg/mL (≈ 64.7 µM); MIC (E. coli JW5503): 16 µg/mL (≈ 32.4 µM); MIC (K. pneumoniae ATCC 43816): 128 µg/mL (≈ 259 µM); MIC (S. aureus ATCC 29213): 64 µg/mL; MIC ([5]; Staphylococcus aureus, read-out: MIC S. aureus MRSA ATCC 33591): 16 µg/mL (≈ 32.4 µM); MIC (S. pneumoniae ATCC 49619): 64 µg/mL (≈ 129 µM); MIC ([7]; ATCC25922, read-out: E. coli MIC): 39 µg/mL (≈ 78.9 µM); MIC ([7]; ATCC25922, read-out: MIC E. coli ATCC 25922): 64 µg/mL (≈ 129 µM); MIC ([6]; ATCC25923, read-out: S. aureus ("Clinical") MIC, Table 15): 2 µg/mL (≈ 4.04 µM) |
| NCC(O)CNC(=O)c1cc2c(c([N+](=O)[O-])c1)Nc1ccccc1S2 (stereo not shown) [compound 94, N-(3-amino-2-hydroxypropyl)-1-nitro-10H-phenothiazine-3-carboxamide] | 202 µM | 94 µg/mL (≈ 261 µM) | 64 µg/mL (≈ 178 µM) | > 100 µg/mL | – |
| CN(C)CCCN1c2ccccc2Sc2cc(-c3cc4ccccc4n3CCN)ccc21 [compound 136, 3-(3-(1-(2-aminoethyl)-1H-indol-2-yl)-10H-phenothiazin-10-yl)-N,N-dimethylpropan-1-amine] | 37 µM | 16 µg/mL (≈ 36.1 µM) | 7 µg/mL (≈ 15.8 µM) | 7 µg/mL (≈ 15.8 µM) | – |
| NC1CCCC(C(=O)Nc2cc(C(F)(F)F)cc3c2Nc2ccccc2S3)C1 (stereo not shown) [compound 105, 3-Amino-N-(3-(trifluoromethyl)-10H-phenothiazin-1-yl)cyclohexanecarboxamide] | 15 µM | 32 µg/mL (≈ 78.5 µM) | 26 µg/mL (≈ 63.8 µM) | 52 µg/mL (≈ 128 µM) | – |
| NCCN(CCN)CCN1CCC(Nc2cc(C(F)(F)F)cc3c2Nc2ccccc2S3)CC1 [compound 234, N1-(2-aminoethyl)-N1-(2-(4-((3-(trifluoromethyl)-10H-phenothiazin-1-yl)amino)piperidin-1-yl)ethyl)ethane-1,2-diamine] | – | 8 µg/mL (≈ 16.2 µM) | 4 µg/mL (≈ 8.09 µM) | 8 µg/mL (≈ 16.2 µM) | – |
| NCCCN1c2ccc(-c3cc4ccccc4[nH]3)cc2Sc2cc(N3CCNCC3)ccc21.O=C(O)C(F)(F)F [compound 244, 3-(3-(1H-indol-2-yl)-7-(piperazin-1-yl)-10H-phenothiazin-10-yl)propan-1-amine] | 4 µM | 4 µg/mL | 9 µg/mL | 36 µg/mL | – |
| N[C@@H]1CCC[C@H](C(=O)Nc2cc(C(F)(F)F)cc3c2Nc2ccccc2S3)C1 [compound 125, (1S,3R)-3-amino-N-(3-(trifluoromethyl)-10H-phenothiazin-1-yl)cyclohexane-carboxamide] | 20 µM | – | 13 µg/mL (≈ 31.9 µM) | 26 µg/mL (≈ 63.8 µM) | – |
| CN(C)CCCN1c2ccccc2Sc2cc(-c3ccc4scnc4c3)ccc21 [compound 130, 3-(3-(benzo[d]thiazol-5-yl)-10H-phenothiazin-10-yl)-N,N-dimethylpropan-1-amine] | 57 µM | – | 7 µg/mL (≈ 16.8 µM) | > 100 µg/mL | – |
| NC1CCCC(CC(=O)Nc2cc(C(F)(F)F)cc3c2Nc2ccccc2S3)C1 (stereo not shown) [compound 167, 2-(3-aminocyclohexyl)-N-(3-(trifluoromethyl)-10H-phenothiazin-1-yl)acetamide] | > 100 µM | – | 13 µg/mL (≈ 30.8 µM) | 27 µg/mL (≈ 64.1 µM) | – |
| FC(F)(F)c1cc2c3c(c1)nc(C1CCNCC1)n3-c1ccccc1S2 [compound 232, 1-(piperidin-4-yl)-4-(trifluoromethyl) imidazo[4,5,1-kl]phenothiazine] | 29 µM | – | 6 µg/mL (≈ 16 µM) | 24 µg/mL (≈ 63.9 µM) | – |
